From patent US20120270915A1, “FATTY ACID AMIDE HYDROLASE INHIHIBITORS FOR TREATING PAIN” (priority 2011, published 2012)
Like-named read-outs stand apart in the source and are kept apart here.

Experiments:
[1] = molecular target: T1, FAAH Rat brain (Rattus norvegicus, UniProt P97612); test: FAAH inhibitory activity, rat brain membranes, [14C]-AEA hydrolysis; format: biochemical
T1 construct: from tissue; host or cells: rat brain membranes
T1 sequence (P97612 1-579): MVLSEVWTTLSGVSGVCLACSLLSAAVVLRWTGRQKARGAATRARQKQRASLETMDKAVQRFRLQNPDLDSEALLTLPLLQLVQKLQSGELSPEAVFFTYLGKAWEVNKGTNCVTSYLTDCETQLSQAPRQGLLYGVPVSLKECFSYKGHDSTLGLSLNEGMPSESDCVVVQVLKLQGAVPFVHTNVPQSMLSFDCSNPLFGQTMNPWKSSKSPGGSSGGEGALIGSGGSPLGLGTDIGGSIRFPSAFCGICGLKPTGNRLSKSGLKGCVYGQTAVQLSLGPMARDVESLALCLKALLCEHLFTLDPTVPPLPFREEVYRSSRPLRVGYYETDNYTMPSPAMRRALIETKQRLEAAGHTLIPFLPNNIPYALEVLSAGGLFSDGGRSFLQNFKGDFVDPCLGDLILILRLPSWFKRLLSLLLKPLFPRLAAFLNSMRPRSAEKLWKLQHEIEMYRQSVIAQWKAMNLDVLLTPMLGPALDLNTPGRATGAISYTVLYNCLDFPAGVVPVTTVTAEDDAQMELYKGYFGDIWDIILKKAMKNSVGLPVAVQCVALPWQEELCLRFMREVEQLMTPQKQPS
Procedure: The compounds of Examples 12, and 19 are tested for FAAH inhibitory activity as follows:
Method 1: Membranes obtained from rat brain are incubated with 2 mM [^14C]-AEA, 30 min at 37° C. at pH values ranging from 9.00 to 10.00 in presence and absence of tested compounds in a final volume of […]. Incubation is stopped by extraction with CHCl3/MeOH (1:1) and the aqueous phases containing [^14C]-Ethanolamine produced by [^14C]-AEA hydrolysis are measured.

[2] = molecular target: FP receptor (Homo sapiens, UniProt P43088); test: Prostanoid receptor antagonism (FLIPR), FP; format: cell-based
[3] = molecular target: T2, DP receptor (Homo sapiens, UniProt Q13258); test: Prostanoid receptor antagonism (FLIPR), DP; format: cell-based
T2 sequence (Q13258 1-359): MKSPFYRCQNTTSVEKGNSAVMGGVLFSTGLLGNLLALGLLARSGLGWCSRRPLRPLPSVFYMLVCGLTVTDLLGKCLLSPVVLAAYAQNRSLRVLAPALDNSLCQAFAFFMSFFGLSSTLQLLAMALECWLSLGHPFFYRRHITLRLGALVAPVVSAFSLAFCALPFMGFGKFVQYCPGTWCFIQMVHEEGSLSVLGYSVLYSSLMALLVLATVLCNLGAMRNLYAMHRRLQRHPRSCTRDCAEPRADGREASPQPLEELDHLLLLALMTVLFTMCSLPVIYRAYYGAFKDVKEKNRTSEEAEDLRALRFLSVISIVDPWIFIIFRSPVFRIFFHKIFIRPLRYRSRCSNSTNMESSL

[4] = molecular target: T3, EP1 receptor (Homo sapiens, UniProt P34995); test: Prostanoid receptor antagonism (FLIPR), EP1; format: cell-based
T3 sequence (P34995 1-402): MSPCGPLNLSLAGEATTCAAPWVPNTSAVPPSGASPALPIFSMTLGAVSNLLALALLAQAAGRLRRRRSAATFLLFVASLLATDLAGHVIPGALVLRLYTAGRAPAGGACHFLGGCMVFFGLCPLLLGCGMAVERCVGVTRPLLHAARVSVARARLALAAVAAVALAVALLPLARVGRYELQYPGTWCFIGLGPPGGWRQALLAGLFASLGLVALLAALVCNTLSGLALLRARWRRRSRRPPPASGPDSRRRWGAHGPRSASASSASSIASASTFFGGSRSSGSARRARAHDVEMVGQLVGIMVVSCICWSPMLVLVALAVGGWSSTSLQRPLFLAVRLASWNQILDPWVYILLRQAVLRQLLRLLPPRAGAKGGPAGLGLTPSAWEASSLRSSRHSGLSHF

[5] = molecular target: EP2 receptor (Homo sapiens, UniProt P43116); test: Prostanoid receptor antagonism (FLIPR), EP2; format: cell-based
[6] = molecular target: T4, EP3 receptor (Homo sapiens, UniProt P43115); test: Prostanoid receptor antagonism (FLIPR), EP3; format: cell-based
T4 sequence (P43115 1-390): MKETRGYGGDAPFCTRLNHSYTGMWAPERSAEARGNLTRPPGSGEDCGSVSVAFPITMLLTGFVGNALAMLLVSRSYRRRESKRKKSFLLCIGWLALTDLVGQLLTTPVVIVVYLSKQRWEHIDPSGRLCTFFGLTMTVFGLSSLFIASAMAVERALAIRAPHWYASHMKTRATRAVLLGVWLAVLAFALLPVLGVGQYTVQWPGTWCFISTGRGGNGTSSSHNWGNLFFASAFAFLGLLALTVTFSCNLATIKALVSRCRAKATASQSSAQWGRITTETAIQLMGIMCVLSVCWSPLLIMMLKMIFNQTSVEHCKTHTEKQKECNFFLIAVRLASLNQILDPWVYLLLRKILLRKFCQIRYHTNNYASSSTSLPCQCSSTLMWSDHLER

[7] = molecular target: EP4 receptor (Homo sapiens, UniProt P35408); test: Prostanoid receptor antagonism (FLIPR), EP4; format: cell-based
[8] = molecular target: IP receptor (Homo sapiens, UniProt P43119); test: Prostanoid receptor antagonism (FLIPR), IP; format: cell-based
[9] = molecular target: T5, TP receptor (Homo sapiens, UniProt P21731); test: Prostanoid receptor antagonism (FLIPR), TP; format: cell-based
T5 sequence (P21731 1-343): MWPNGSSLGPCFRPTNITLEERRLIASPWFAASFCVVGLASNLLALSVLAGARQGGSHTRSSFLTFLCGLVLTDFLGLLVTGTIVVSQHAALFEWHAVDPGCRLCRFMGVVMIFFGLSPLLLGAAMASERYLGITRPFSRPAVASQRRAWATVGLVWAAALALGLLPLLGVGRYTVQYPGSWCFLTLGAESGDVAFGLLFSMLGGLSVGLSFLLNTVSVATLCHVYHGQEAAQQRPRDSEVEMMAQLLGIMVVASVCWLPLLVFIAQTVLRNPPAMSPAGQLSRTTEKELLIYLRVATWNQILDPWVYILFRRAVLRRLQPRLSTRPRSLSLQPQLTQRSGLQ

[10] = Table 1, rat brain, read-out: FAAH Rat brain IC50
[11] = Table 2, rat brain, read-out: FAAH Rat brain IC50

Chain of EP4 receptor (P35408 whole entry): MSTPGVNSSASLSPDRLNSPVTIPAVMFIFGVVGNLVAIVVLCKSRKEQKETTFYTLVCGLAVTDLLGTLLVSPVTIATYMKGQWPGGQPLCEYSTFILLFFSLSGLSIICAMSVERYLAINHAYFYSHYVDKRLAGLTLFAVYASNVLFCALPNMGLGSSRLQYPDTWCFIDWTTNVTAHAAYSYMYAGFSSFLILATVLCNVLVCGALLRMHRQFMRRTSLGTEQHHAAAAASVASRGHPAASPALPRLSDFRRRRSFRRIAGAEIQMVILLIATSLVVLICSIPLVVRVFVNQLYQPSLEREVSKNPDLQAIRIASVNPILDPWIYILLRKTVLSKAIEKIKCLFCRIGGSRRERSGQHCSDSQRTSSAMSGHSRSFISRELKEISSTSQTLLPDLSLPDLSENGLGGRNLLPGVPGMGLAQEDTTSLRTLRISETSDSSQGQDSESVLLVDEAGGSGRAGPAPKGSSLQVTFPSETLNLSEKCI
Chain of IP receptor (P43119 whole entry): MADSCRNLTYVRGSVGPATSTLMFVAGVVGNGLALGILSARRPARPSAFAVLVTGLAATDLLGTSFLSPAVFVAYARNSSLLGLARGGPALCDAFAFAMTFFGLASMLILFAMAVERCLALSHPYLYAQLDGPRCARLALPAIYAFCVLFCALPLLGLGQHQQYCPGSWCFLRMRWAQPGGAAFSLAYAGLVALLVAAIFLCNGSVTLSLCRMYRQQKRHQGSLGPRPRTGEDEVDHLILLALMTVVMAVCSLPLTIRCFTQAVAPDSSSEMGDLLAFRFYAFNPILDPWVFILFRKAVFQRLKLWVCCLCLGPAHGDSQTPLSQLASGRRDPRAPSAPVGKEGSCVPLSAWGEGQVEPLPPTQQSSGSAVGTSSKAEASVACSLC
Chain of FP receptor (P43088 whole entry): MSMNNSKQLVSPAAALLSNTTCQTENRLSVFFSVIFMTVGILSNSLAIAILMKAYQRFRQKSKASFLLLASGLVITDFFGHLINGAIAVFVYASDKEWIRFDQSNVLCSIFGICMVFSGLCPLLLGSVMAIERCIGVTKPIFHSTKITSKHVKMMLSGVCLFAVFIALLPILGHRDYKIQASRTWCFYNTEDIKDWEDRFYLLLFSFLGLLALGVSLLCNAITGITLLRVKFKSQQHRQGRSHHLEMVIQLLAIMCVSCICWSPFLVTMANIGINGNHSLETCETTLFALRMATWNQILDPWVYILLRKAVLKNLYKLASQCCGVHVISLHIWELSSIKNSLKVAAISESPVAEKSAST
Chain of EP2 receptor (P43116 whole entry): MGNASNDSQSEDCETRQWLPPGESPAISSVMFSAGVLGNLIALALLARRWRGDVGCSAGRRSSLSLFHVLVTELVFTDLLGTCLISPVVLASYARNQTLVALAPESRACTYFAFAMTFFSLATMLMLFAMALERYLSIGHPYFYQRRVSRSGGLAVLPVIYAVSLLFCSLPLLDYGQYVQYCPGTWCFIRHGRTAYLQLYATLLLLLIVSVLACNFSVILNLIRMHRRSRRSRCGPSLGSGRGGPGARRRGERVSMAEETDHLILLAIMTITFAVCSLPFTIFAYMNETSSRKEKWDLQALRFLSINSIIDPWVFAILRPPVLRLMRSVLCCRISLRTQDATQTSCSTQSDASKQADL

SMILES | IC50 [1, 10] | Kb ([2]; Table 1) | Kb ([3]; Table 1) | Kb ([4]; Table 1) | Kb ([5]; Table 1) | Kb ([6]; Table 1) | Kb ([7]; Table 1) | Kb ([8]; Table 1) | Kb ([9]; Table 1) | IC50 [1, 11] | Kb ([2]; Table 2) | Kb ([3]; Table 2) | Kb ([4]; Table 2) | Kb ([5]; Table 2, NA = inactive) | Kb ([6]; Table 2) | Kb ([7]; Table 2) | Kb ([8]; Table 2, NA = inactive) | Kb ([9]; Table 2) | IC50 [1]
CCCCCCCCNC(=O)c1coc([C@@H]2CCCN2Cc2cc(OC)ccc2CCC(=O)NS(=O)(=O)C(F)(F)F)n1 [Example 12f, 2-{1-(5-methoxy-2-(3-oxo-3-{[(trifluoromethyl)sulfonyl]amino]propyl)benzyl]pyrrolidin-2-yl}-N-octyl-1,3-oxazole-4-carboxamide] | 500 nM | 380 nM | < 1 nM | 60 nM | 1100 nM | 140 nM | 20 nM | 400 nM | < 1 nM | – | – | – | – | – | – | – | – | – | –
COc1ccc(CCC(=O)NS(=O)(=O)N(C)C)c(CN2CCC[C@H]2c2nc(C(=O)NCCCCC3CCCCC3)co2)c1 [Example 12k] | – | – | – | – | – | – | – | – | – | 200 nM | 1400 nM | 80 nM | 3100 nM | 4000 nM | 5600 nM | 400 nM | 2900 nM | 13 nM | –
COc1ccc(CCC(=O)NS(=O)(=O)C(C)C)c(CN2CCC[C@H]2c2nc(C(=O)NCCCCC3CCCCC3)co2)c1 [Example 12i, (S)—N-(4-cyclohexylbutyl)-2-(1-(5-methoxy-2-(3-oxo-3-(isopropylsulfonamido)propyl)benzyl)pyrrolidin-2-yl)oxazole-4-carboxamide] | – | – | – | – | – | – | – | – | – | 150 nM | 1500 nM | 44 nM | 1900 nM | – | 480 nM | 210 nM | – | 1 nM | –
COc1ccc(CCC(=O)NS(=O)(=O)CCCF)c(CN2CCC[C@H]2c2nc(C(=O)NCCCCC3CCCCC3)co2)c1 [Example 12h, 2(S)—N-(4-cyclohexylbutyl)-2-(1-(5-methoxy-2-(3-oxo-3-(fluoropropylsulfonamido)propyl)benzyl)pyrrolidin-2-yl)oxazole-4-carboxamide] | – | – | – | – | – | – | – | – | – | 100 nM | 2000 nM | 8 nM | 830 nM | 7800 nM | 50 nM | 150 nM | – | 8 nM | –
O=C(CCc1ccc(Cl)cc1CN1CCC[C@H]1c1nc(C(=O)NCCCCC2CCCCC2)co1)NS(=O)(=O)C(F)(F)F [Example 12b, (S)—N-(4-cyclohexylbutyl)-2-(1-(5-chloro-2-(3-oxo-3-(trifluoromethylsulfonamido)propyl)benzyl)pyrrolidin-2-yl)oxazole-4-carboxamide] | 4500 nM | 460 nM | < 1 nM | 70 nM | 5500 nM | 100 nM | 40 nM | 9500 nM | < 1 nM | – | – | – | – | – | – | – | – | – | –
O=C(CCc1ccc(F)cc1CN1CCC[C@H]1c1nc(C(=O)NCCCCC2CCCCC2)co1)NS(=O)(=O)C(F)(F)F [Example 12a] | 1000 nM | 350 nM | < 1 nM | 50 nM | 6400 nM | 80 nM | 40 nM | 550 nM | < 1 nM | – | – | – | – | – | – | – | – | – | –
COc1ccc(CCC(=O)NS(=O)(=O)c2ccc(Cl)s2)c(CN2CCC[C@H]2c2nc(C(=O)NCCCCC3CCCCC3)co2)c1 [Example 12j, (S)—N-(4-cyclohexylbutyl)-2-(1-(5-methoxy-2-(3-oxo-3-(5-chlorothienylsulfonamido)propyl)benzyl)pyrrolidin-2-yl)oxazole-4-carboxamide] | – | – | – | – | – | – | – | – | – | 210 nM | 2300 nM | 28 nM | 240 nM | 900 nM | 10 nM | 360 nM | – | 4 nM | –
CCS(=O)(=O)NC(=O)CCc1ccc(OC)cc1CN1CCC[C@H]1c1nc(C(=O)NCCCCC2CCCCC2)co1 [Example 12l, (S)—N-(4-cyclohexylbutyl)-2-(1-(5-methoxy-2-(3-oxo-3-(ethylsulfonamido)propyl)benzyl)pyrrolidin-2-yl)oxazole-4-carboxamide] | – | – | – | – | – | – | – | – | – | 240 nM | 1600 nM | 40 nM | 180 nM | 1800 nM | 910 nM | 160 nM | 6900 nM | 11 nM | –
O=C(CCc1cc2c(cc1CN1CCC[C@H]1c1nc(C(=O)NCCCCC3CCCCC3)co1)OCO2)NS(=O)(=O)C(F)(F)F [Example 12d] | 740 nM | 360 nM | 3 nM | 60 nM | 3900 nM | 150 nM | 7 nM | 1000 nM | 0.3 nM | – | – | – | – | – | – | – | – | – | –
CCCCCCCCNC(=O)c1coc([C@@H]2CCCN2Cc2cc(F)ccc2CCC(=O)NS(=O)(=O)C(F)(F)F)n1 [Example 12e, 2-{1-[5-fluoro-2-(3-oxo-3-{[(trifluoromethyl)sulfonyl]amino}propyl)benzyl]pyrrolidin-2-yl}-N-octyl-1,3-oxazole-4-carboxamide] | – | 270 nM | 20 nM | 20 nM | 2500 nM | 110 nM | 20 nM | 290 nM | < 1 nM | – | – | – | – | – | – | – | – | – | 2100 nM
COc1ccc(CCC(=O)NS(=O)(=O)C(F)(F)F)c(CN2CCC[C@H]2c2nc(C(=O)NCCCCC3CCCCC3)co2)c1 [Example 12c, (S)—N-(4-cyclohexylbutyl)-2-(1-(5-methoxy-2-(3-oxo-3-(trifluoromethylsulfonamido)propyl)benzyl)pyrrolidin-2-yl)oxazole-4-carboxamide] | 200 nM | 270 nM | 17 nM | 20 nM | 830 nM | 47 nM | 10 nM | 860 nM | < 1 nM | – | – | – | – | – | – | – | – | – | –
